Measurements from paper PMC12521546 (Nature Communications, 2025).
Values after ≈ are worked out from the molar mass of the structure shown. “Also recorded” adds a separate entry of the source. Like-named read-outs stand apart in the source and are kept apart here.

Experiments:
CnAcs1 [1] = molecular target: T1, CnAcs1 (Cryptococcus neoformans, UniProt J9VFT1); experiment: Acs coupled kinetic pyrophosphate; format: biochemical
T1 sequence (J9VFT1 1-680): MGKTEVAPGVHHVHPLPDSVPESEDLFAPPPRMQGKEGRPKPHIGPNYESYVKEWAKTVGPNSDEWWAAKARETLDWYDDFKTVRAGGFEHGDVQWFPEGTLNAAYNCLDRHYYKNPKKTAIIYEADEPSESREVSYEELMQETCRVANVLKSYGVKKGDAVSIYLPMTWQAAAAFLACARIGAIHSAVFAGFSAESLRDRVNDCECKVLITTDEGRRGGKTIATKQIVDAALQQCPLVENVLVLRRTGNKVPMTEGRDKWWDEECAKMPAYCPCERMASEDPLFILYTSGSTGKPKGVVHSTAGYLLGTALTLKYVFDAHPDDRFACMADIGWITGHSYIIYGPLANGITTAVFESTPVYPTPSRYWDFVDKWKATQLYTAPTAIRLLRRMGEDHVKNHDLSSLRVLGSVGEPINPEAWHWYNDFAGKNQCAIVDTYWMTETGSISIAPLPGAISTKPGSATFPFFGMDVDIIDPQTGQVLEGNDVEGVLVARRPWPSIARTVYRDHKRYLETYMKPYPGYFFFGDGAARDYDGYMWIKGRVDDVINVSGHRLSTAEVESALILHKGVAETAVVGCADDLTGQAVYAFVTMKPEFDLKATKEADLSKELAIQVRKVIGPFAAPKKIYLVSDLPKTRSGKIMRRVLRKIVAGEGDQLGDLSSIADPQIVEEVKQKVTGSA

PfAcAS = conditions: cited from earlier work
[2] = tested on: C. neoformans reference strain H99; experiment: MIC, modified CLSI micro-broth dilution, H99; format: cell-based, Cryptococcus neoformans
Ca^CnAcs2 = molecular target: T2, Ca^CnAcs2 (Candida albicans, UniProt Q8NJN3, A319M/F357Y/G320A/Q430M/V371T); experiment: Acs assay, Ca^CnAcs2 mutant enzyme; conditions: for IC50: read-out: IC50 Ca^CnAcs2
T2 sequence (Q8NJN3 with tags, fused parts or gaps A319M/G320A/F357Y/V371T/V388A/Q430M): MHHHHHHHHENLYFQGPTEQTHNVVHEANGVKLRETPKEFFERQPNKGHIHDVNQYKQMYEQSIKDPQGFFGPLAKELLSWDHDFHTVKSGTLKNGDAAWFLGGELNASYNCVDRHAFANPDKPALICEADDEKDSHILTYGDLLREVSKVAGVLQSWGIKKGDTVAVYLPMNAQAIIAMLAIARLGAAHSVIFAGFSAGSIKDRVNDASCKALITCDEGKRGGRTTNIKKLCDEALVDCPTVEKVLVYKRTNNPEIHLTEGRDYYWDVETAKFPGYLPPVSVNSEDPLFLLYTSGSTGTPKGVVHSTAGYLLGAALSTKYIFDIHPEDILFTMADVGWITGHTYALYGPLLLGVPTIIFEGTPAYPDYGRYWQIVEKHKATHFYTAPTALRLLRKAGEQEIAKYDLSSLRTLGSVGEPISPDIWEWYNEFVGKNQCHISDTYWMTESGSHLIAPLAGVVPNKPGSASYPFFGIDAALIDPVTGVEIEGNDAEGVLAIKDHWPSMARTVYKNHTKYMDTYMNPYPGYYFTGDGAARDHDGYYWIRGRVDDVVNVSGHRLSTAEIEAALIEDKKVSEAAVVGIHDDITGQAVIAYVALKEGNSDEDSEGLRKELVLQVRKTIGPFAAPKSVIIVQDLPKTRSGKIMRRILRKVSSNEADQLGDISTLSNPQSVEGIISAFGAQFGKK

human ACSS2 = human ACSS2 (Homo sapiens, UniProt Q9NR19); experiment: Acs coupled kinetic assay, human ACSS2; format: biochemical
CaAcs2 [3] = molecular target: T3, CaAcs2 (Candida albicans, UniProt Q8NJN3); experiment: Acs coupled kinetic assay, CaAcs2; format: biochemical
T3 sequence (Q8NJN3 1-671): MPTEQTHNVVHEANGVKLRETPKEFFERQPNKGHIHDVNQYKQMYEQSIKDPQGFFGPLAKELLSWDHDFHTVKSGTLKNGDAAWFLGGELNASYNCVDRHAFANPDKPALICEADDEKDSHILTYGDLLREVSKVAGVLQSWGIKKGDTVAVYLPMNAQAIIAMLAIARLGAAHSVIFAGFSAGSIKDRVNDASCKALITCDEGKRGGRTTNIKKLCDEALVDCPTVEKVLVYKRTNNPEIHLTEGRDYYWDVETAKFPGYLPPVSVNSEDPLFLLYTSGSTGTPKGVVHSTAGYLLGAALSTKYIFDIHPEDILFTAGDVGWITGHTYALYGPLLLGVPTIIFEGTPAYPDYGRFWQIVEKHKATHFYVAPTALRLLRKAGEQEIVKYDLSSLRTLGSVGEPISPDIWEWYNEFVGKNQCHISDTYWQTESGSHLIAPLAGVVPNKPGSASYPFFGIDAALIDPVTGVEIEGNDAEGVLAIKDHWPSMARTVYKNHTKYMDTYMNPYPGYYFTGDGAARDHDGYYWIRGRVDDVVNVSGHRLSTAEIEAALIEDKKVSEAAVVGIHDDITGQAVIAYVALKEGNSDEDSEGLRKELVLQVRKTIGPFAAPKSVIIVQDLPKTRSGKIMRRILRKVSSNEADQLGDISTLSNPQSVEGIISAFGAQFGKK

CnAcs1 [4] = molecular target: T1, CnAcs1; conditions: cited from earlier work; for IC50: read-out: IC50 CnAcs1, alkyl-AMP esters
CaAcs2 [5] = molecular target: T3, CaAcs2; conditions: read-out: IC50 CaAcs2; cited from earlier work

Chain of human ACSS2 (Q9NR19 whole entry): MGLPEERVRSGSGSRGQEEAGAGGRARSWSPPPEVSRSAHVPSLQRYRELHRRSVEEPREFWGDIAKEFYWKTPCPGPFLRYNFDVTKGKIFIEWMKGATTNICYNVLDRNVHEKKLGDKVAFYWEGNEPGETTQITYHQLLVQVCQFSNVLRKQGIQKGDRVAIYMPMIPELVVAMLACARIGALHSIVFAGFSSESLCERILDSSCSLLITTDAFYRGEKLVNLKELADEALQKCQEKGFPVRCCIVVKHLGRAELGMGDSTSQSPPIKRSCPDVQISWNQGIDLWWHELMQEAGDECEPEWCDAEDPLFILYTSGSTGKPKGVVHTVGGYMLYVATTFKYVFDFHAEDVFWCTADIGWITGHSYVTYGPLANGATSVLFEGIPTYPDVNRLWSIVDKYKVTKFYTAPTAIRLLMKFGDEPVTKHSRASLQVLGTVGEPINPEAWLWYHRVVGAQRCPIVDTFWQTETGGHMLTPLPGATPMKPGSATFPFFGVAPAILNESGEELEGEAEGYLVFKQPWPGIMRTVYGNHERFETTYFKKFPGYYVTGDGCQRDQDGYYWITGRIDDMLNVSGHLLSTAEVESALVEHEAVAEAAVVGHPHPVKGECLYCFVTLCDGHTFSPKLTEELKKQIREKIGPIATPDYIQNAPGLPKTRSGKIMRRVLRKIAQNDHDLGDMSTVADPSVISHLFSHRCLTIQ

## CCN(CC)S(=O)(=O)c1ccc(Cl)c(C(=O)Nc2ccc3nc(C)sc3c2)c1 [MMV019721]
CnAcs1 [1]
  inhibition of CnAcs1 (in words): did not inhibit CnAcs1 below its solubility limit; also recorded: does not inhibit CnAcs1 at the maximum soluble concentration; also recorded: does not significantly inhibit CnAcs1
PfAcAS
  kinetic mechanism of PfAcAS inhibition: competitive with ATP and uncompetitive with CoA
[2]
  antifungal activity against C. neoformans (in words): no activity

## O=C(NNC(=O)c1csnn1)c1ccc(Cl)cc1 [MMV084978]
Ca^CnAcs2
  maximum inhibition of Ca^CnAcs2: 93%
  IC50: 88 ± 21 µM
CnAcs1 [1]
  fold higher IC50 toward CnAcs1 than PfAcAS: ~ 8 fold
  kinetic mechanism of CnAcs1 inhibition: uncompetitive
CnAcs1 [1]; listed as MMV089478
  kinetic mechanism of CnAcs1 inhibition: uncompetitive inhibitor of CnAcs1
CnAcs1 [1]; listed as MMV0894978
  fold higher IC50 toward CnAcs1 than PfAcAS: 8 fold
CnAcs1 [1]; read-out: Ki with CnAcs1, uncompetitive model, CoA varied
  Ki: 4.1 µM
Human ACSS2
  fold higher IC50 toward ACSS2 than PfAcAS: 50 fold
PfAcAS
  kinetic mechanism of PfAcAS inhibition: uncompetitive inhibitor with respect to ATP and CoA
PfAcAS; read-out: IC50 PfAcAS
  IC50: 370 nM
[2]; medium not stated
  MIC toward C. neoformans: 64 µg/mL (≈ 226 µM)
CaAcs2 [3]
  inhibition of CaAcs2 (in words): did not inhibit CaAcs2

## COC(=O)c1cccc(N2N=C(C)C(C(=O)Nc3cccc(C(C)(F)F)c3)C2=O)c1 (stereo not drawn) [MTB-9655]
CnAcs1 [1]
  inhibition of CnAcs1 (in words): no activity against CnAcs1

## CCCCOP(=O)(O)OCC1OC(n2cnc3c(N)ncnc32)C(O)C1O (stereo not drawn) [butyl]
CnAcs1 [4]
  decrease in potency relative to ethyl-AMP: > 50 fold

## CN(Cc1cccc(-c2ccc(F)cc2)c1)Cc1cc(C2CC2)on1 [compound 3]
CnAcs1 [1]
  inhibition of CnAcs1 (in words): no activity against CnAcs1

## CC(C)c1cc(CN(C)C(=O)c2cccc(-c3ccc(F)cc3)c2)no1 [compound 5]
CnAcs1 [1]
  inhibition of CnAcs1 (in words): eliminated inhibition entirely

## Cc1cc(CN(C)C(=O)c2cccc(-c3ccc(F)cc3)c2)no1 [compound 6]
CnAcs1 [1]
  inhibition of CnAcs1 (in words): much less potent than 2
CnAcs1 [1]; read-out: inhibition of CnAcs1
  inhibition at 100 µM: 50%

## CN(Cc1ccon1)C(=O)c1cccc(-c2ccc(F)cc2)c1 [compound 7]
CnAcs1 [1]
  inhibition of CnAcs1 (in words): completely inactive

## O=C(NCc1cc(C2CC2)on1)c1cccc(-c2ccc3c(c2)CCO3)c1 [compound 8]
CnAcs1 [1]
  inhibition of CnAcs1 (in words): no activity against CnAcs1

## COc1ccc(-c2cccc(C(=O)N(C)Cc3cc(C4CC4)on3)c2)cc1 [compound 9]
CnAcs1 [1]
  inhibition of CnAcs1 (in words): activity that was similar to 1 and more potent than 2

## COc1ccccc1-c1cccc(C(=O)N(C)Cc2cc(C3CC3)on2)c1 [compound 10]
CnAcs1 [1]
  inhibition of CnAcs1 (in words): eliminated activity

## CN(Cc1cc(C2CC2)on1)C(=O)c1cccc(-c2ccccc2)c1 [compound 12]
CnAcs1 [1]
  inhibition of CnAcs1 (in words): no activity

## Nc1ncnc2c1ncn2[C@@H]1O[C@H](COP(=O)(O)OC2CC2)[C@@H](O)[C@H]1O [cyclopropyl-AMP ester]
CnAcs1 [4]
  IC50: 9 µM

## CCOP(=O)(O)OC[C@H]1O[C@@H](n2cnc3c(N)ncnc32)[C@H](O)[C@@H]1O [ethyl-AMP]
Ca^CnAcs2
  IC50: 19 ± 7 µM
CnAcs1 [4]
  IC50: 8 µM
CaAcs2 [5]
  IC50: 11 ± 5 µM

## CC(C)OP(=O)(O)OCC1OC(n2cnc3c(N)ncnc32)C(O)C1O (stereo not drawn) [isopropyl-AMP ester]
CnAcs1 [1]
  inhibition of CnAcs1 (in words): equivalent to that of the cyclopropyl-AMP ester

## COP(=O)(O)OCC1OC(n2cnc3c(N)ncnc32)C(O)C1O (stereo not drawn) [methyl-AMP ester]
CnAcs1 [1]
  inhibition of CnAcs1 (in words): completely inactive

## CCCOP(=O)(O)OC[C@H]1O[C@@H](n2cnc3c(N)ncnc32)[C@H](O)[C@@H]1O [propyl]
CnAcs1 [4]
  decrease in potency relative to ethyl-AMP: 3 fold
